Consider 23 compounds from US20060240048A1 (priority 2002, published 2006).

The target of the test is T1, human cannabinoid CB2 receptor (Homo sapiens, UniProt P34972).
T1 construct: expressed in transfected cells; host or cells: Saccharomyces cerevisiae strain MMY23
The experiment in a line: Cannabinoid CB2 receptor agonist activity, yeast reporter assay (FDGlu fluorescence).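 As to Emax: 100% equals maximal response of reference agonist HU210.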 It is filed as cell-based. To be noted: for Emax: read-out: efficacy value (Emax) at the cloned human cannabinoid CB2 receptor. On the technique in general: A reporter such as luciferase makes a cellular process visible.

As usually defined, the EC50 is the concentration at which the effect is half-maximal. Read a low EC50 as an effect from little substance. The term Emax denotes the maximal effect, on the per cent scale that the assay sets.

T1 sequence (P34972 whole entry): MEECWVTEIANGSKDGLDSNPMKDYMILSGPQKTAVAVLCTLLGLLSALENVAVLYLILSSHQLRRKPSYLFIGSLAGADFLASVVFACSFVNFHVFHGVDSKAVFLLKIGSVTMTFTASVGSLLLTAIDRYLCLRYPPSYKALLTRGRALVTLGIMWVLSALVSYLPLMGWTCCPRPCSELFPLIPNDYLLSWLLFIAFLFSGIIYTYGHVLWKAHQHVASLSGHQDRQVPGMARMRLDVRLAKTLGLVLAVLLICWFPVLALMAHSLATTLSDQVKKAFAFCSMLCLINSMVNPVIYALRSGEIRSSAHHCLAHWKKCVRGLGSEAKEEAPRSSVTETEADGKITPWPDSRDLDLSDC

As to `CC(C)c1cc(Nc2cc(Cl)ccc2Cl)ncc1C(=O)NCC1CCC1` [Example 264, N-Cyclobutylmethyl-6-(2,5-dichloro-phenylamino)-4-isopropyl-nicotinamide], the EC50 is below 300 nM and the Emax is above 50%.

For the compound `CC(C)c1cc(Nc2cc(F)cc(F)c2)ncc1C(=O)NCC1CCC1` [Example 265, N-Cyclobutylmethyl-6-(3,5-difluoro-phenylamino)-4-isopropyl-nicotinamide], the EC50 was below 300 nM and the Emax was above 50%. As to `CC(C)c1cc(Nc2cc(Cl)ccc2F)ncc1C(=O)NCC1CCC1` [Example 266, 6-(5-Chloro-2-fluoro-phenylamino)-N-cyclobutylmethyl-4-isopropyl-nicotinamide], the EC50 is below 300 nM and the Emax is above 50%.

`CC(C)c1cc(Nc2cc(F)ccc2Cl)ncc1C(=O)NCC1CCC1` [Example 267, 6-(2-Chloro-5-fluoro-phenylamino)-N-cyclobutytmethyl-4-isopropyl-nicotinamide]: the EC50 is below 300 nM and the Emax was above 50%. With `CC(C)CNC(=O)c1cnc(Nc2cccc(Cl)c2)cc1C(C)C` [Example 268, 6-(3-Chloro-phenylamino)-N-isobutyl-4-isopropyl-nicotinamide], the Emax is above 50%. `CC(C)CNC(=O)c1cnc(Nc2cccc(C(F)(F)F)c2)cc1C(C)C` [Example 269, N-Isobutyl-4-isopropyl-6-(3-trifluoromethyl-phenylamlno)-nicotinamide]: the EC50 was below 300 nM and the Emax is above 50%. For `CC(C)CNC(=O)c1cnc(Nc2ccc(Cl)c(Cl)c2)cc1C(C)C` [Example 270, 6-(3,4-Dichloro-phenylamino)-N-isobutyl-4-isopropyl-nicotinamide] the same measures were below 300 nM and above 50%. The matching figures for `CC(C)CNC(=O)c1cnc(Nc2cccc(C(F)(F)F)c2F)cc1C(C)C` [Example 271, 6-(2-Fluoro-3-trifluoromethyl-phenylamino)-N-isobutyl-4-isopropyl-nicotinamide]: below 300 nM and above 50%. As for `Cc1c(Br)cccc1Nc1cc(C(C)C)c(C(=O)NCC(C)C)cn1` [Example 272, 6-(3-Bromo-2-methyl-phenylamino)-N-isobutyl-4-isopropyl-nicotinamide], the EC50 was below 300 nM and the Emax was above 50%. For the compound `CC(C)CNC(=O)c1cnc(Nc2ccc(Cl)cc2Cl)cc1C(C)C` [Example 273, 6-(2,4-Dichloro-phenylamtno)-N-isobutyl-4-isopropyl-nicotinamide], the EC50 was below 300 nM and the Emax was above 50%. For `CC(C)CNC(=O)c1cnc(Nc2cc(F)ccc2Cl)cc1C(C)C` [Example 274, 6-(2-Chloro-5-fluoro-phenylamino)-N-isobutyl-4-isopropyl-nicotinamide] the same measures were below 300 nM and above 50%. For `CC(C)CNC(=O)c1cnc(Nc2cc(F)cc(F)c2)cc1C(C)C` [Example 275, 6-(3,5-Difluoro-phenylamino)-N-isobutyl-4-isopropyl-nicotinamide] the same measures were below 300 nM and above 50%. The matching figures for `CC(C)CNC(=O)c1cnc(Nc2cc(Cl)ccc2F)cc1C(C)C` [Example 276, 6-(5-Chloro-2-fluoro-phenylamino)-N-isobutyl-4-isopropyl-nicotinamide]: below 300 nM and above 50%. On to `CC(C)CNC(=O)c1cnc(Nc2cccc(Br)c2)cc1C(C)C` [Example 277, 6-(3-Bromo-phenylamino)-N-isobutyl-4-isopropyl-nicotinamide], for which the EC50 was below 300 nM and the Emax was above 50%. For `CC(C)c1cc(Nc2ccc(Cl)cc2Cl)ncc1C(=O)NCC1CCS(=O)(=O)C1` (stereo not drawn) [Example 278, 6-(2,4-Dichloro-phenylamino)-N-(1,1-dioxo-tetrahydro-1/^6-thiophen-3-ylmethyl)-4-isopropyl-nicotinamide] the same measures were below 300 nM and above 50%. For `CC(C)c1cc(Nc2ccc(Br)c(F)c2)ncc1C(=O)NCC1CCS(=O)(=O)C1` (stereo not drawn) [Example 279, 6-(4-Bromo-3-fluoro-phenylamino)-N-(1,1-dioxo-tetrahydro-1/^6-thiophen-3-ylmethyl)-4-isopropyl-nicotinamide] the same measures were below 300 nM and above 50%. Regarding `CC(C)c1cc(Nc2ccc(OC(F)(F)F)cc2Br)ncc1C(=O)NCC1CCC1` [Example 291, 6-(2-Bromo-4-trifluoromethoxy-phenylamino)-N-cyclobutylmethyl-4-isopropyl-nicotinamide], the Emax was above 50%. Regarding `CC(C)c1cc(Nc2ccc(C#N)cc2F)ncc1C(=O)NCC1CCCC1` [Example 293, 6-(4-Cyano-2-fluoro-phenylamino)-N-cyclopentylmethyl-4-isopropyl-nicotinamide], the EC50 was below 300 nM and the Emax is above 50%. In the case of `CC(C)c1cc(Nc2ccc(Br)c(C(F)(F)F)c2)ncc1C(=O)NCC1CCOCC1` [Example 294, 6-(4-Bromo-3-trifluoromethyl-phenylamino)-4-isopropyl-N-(tetrahydropyran-4-ylmethyl)-nicotinamide], the Emax was above 50%.

Consider `CC(C)c1cc(Nc2ccc(F)c(C(F)(F)F)c2)ncc1C(=O)NCC1CCOCC1` [Example 295, 6-(4-Fluoro-3-trifluoromethyl-phenylamino)-4-isopropyl-N-(tetrahydropyran-4-ylmethyl)-nicotinamide], for which the EC50 was below 300 nM and the Emax is above 50%.

`CC(C)c1cc(Nc2ccc(Br)c(Br)c2)ncc1C(=O)NCC1CCOCC1` [Example 296, 6-(3,4-Dibromo-phenylamino)-4-isopropyl-N-(tetrahydropyran-4-ylmethyl)-nicotinamide]: the EC50 was below 300 nM and the Emax was above 50%. The matching figures for `CC(C)c1cc(Nc2ccc(Br)c(F)c2)ncc1C(=O)NCC1CCOCC1` [Example 297, 6-(4-Bromo-3-fluoro-phenylamino)-4-isopropyl-N-(tetrahydropyran-4-ylmethyl)-nicotinamide]: below 300 nM and above 50%.

On to `Cc1cccc(Nc2cc(C(C)C)c(C(=O)NCC3CCOCC3)cn2)c1C#N` [Example 303, 6-(2-Cyano-3-methyl-phenylamino)-4-isopropyl-N-(tetrahydropyran-4-ylmethyl)-nicotinamide], for which the Emax was above 50%.
